Assay results published in US20260248788A1, “NEW COMPOUNDS AND TREATMENT OF RENAL CELL CARCINOMA” (TRUSTLIFE THERAPEUTICS INC., priority 2023, published 2026).
Entries after “also recorded” stand apart in the source; their conditions may differ.

Tests used:
Assay type in all cases: cell-based, human
Caki-1 cells [1] = test: LDH cytotoxicity assay; conditions: for cytotoxic effect and dose dependence: Caki-1, 10 nM-30 μM; for cytotoxicity (LDH assay): Caki-1, 10 μM; for cytotoxicity (LDH assay) / Ranking, Cytotoxicity (%): 1 day; for Ranking, Cytotoxicity (%): top five, LDH assay, 10 μM, rank 1 = highest; for cytotoxicity according to LDH assay (conclusion): Caki-1; for cytotoxicity according to LDH assay (conclusion) / cytotoxicity (summary statement): concentration not given; for cell death / toxicity (LDH): Caki-1, 10 and 30 μM
Procedure: (§1) Cell culture 2: Caki-1 was purchased from CLS Cell Lines Service (Germany). The cells were maintained in McCoy's 5A (modified) medium (16600082, Thermo Fisher Scientific, USA) and supplemented with 10% fetal bovine serum (FBS, F7524, Sigma-Aldrich), 1% Penicillin/Streptomycin (P4333, Sigma-Aldrich).
Lactate dehydrogenase (LDH) assay was performed with LDH Assay Kit (ab65393). […] 20 μl of media was analysed with LDH Assay Kit as per manufacturer's instruction.

BUB1B = test: Western blot of BUB1B in Caki-1 cells treated with TG-101209 derivatives; conditions: for expression levels of BUB1B (Western blot): Caki-1 cells, 5 μM of target drug, 1 day (FIG. 41, 56); for expression levels of BUB1B (summary statement): concentration not given
Procedure: as §1
The target drugs developed as alternatives to TG-101209, were dissolved in 0.1% DMSO (41639, Sigma-Aldrich). Caki-1 cells from cell culture 2 were seeded in a 6-well plate at 3×10^5 cells per well. […]
The cells were washed with PBS solution and then lysed with CelLytic M (C2978, Sigma-Aldrich) lysis buffer containing protease inhibitors (11836170001, Roche). The cell lysates were centrifuged at 12 000 rpm for 10 min and supernatants were collected. Protein Assay Dye Reagent (5000006, Bio-Rad) was used for the determination of protein concentration. The absorbance of the proteins was measured spectrophotometrically at 595 nm by a microplate reader (Hidex Sense Beta Plus). Protein electrophoresis was performed using Mini-PROTEAN® TGX™ Precast Gels (4561086, Bio-Rad) and then the separated proteins were transferred to a Trans-Blot Turbo Mini 0.2 μm PVDF Transfer Packs membrane (1704158, Bio-Rad) by using Trans-Blot® Turbo™ Transfer System (Bio-Rad). The membrane was blocked with 5% skim milk for 30 min at 4° C. with gentle rocking. After blocking, the membrane was treated with primary antibodies: Anti-BUB1B (HPA008419, Human Protein Atlas, Sweden) and Anti-Beta actin (ab8227, Abcam) as a loading control overnight at 4° C. on a rocking platform. After the treatment of primary antibodies, the membrane was washed three times with TBS-T buffer (A09-7500-100, Medicago). Then, Goat anti-Rabbit IgG-HRP (ab205718, Abcam) was treated as the secondary antibody for 30 min at 4° C. with gentle rocking.

Caki-1 cells [2] = test: MTT cell viability assay; conditions: for change of IC50 values after 2 days compared to 1 day treatment: Caki-1 (FIG. 53-54); for reduction in cell viability (MTT) / effect on cell viability (MTT): 1 day; for cell viability over the treatment period (MTT): 27 h, 48 h and 72 h (FIG. 55); for IC50 values compared with TG-101209: Caki-1, 1 and 2 days (FIG. 53-54); for cell viability of treated cells (summary statement) / reduction in cell viability according to MTT assay (conclusion): concentration not given; for reduction in cell viability according to MTT assay (conclusion): Caki-1
Procedure: as §1
The cytotoxic effects of the TG-101209 and its alternatives on the Caki-1 cells were tested by MTT (Thiazolyl Blue Tetrazolium Bromide) method. 1.5×10^4 cells were seeded per well in a 96-well plate in 100 μL growth media. […] After the incubation period, 5 mg/ml MTT (M2128, Sigma-Aldrich) solution in PBS (10 μL) was added to each well. After 1 hour, the MTT solution and all media were removed from the wells. 100 μl of DMSO was added and mixed to dissolve the formazan crystals. Cell viability was analysed by measuring the absorbance of the dissolved formazan at a wavelength of 570 nm with a microplate reader (Hidex Sense Beta Plus).

Caki-1 cells [3] = test: Cell morphology (DIC images) of treated Caki-1 cells; conditions: Caki-1, 10 μM, 1 day; for effect on the cell morphology: DIC images (FIG. 52)
Excerpt: The effect of treatment of Caki-1 cells with the target compounds was further evaluated by monitoring the cell morphology of treated cells, see FIG. 52.

| SMILES | cytotoxic effect and dose dependence (Caki-1 cells [1]) | cytotoxicity (LDH assay) (Caki-1 cells [1]; first batch) | Ranking, Cytotoxicity (%) (Caki-1 cells [1]) | expression levels of BUB1B (Western blot) (BUB1B) | expression levels of BUB1B (summary statement) (BUB1B) | change of IC50 values after 2 days compared to 1 day treatment (Caki-1 cells [2]) | reduction in cell viability (MTT) (Caki-1 cells [2]; Caki-1, 5 μM, first batch) | effect on cell viability (MTT) (Caki-1 cells [2]; Caki-1, 10 μM, first batch) | cell viability over the treatment period (MTT) (Caki-1 cells [2]; Caki-1, 10 μM) | IC50 values compared with TG-101209 (Caki-1 cells [2]) | cell viability of treated cells (summary statement) (Caki-1 cells [2]) | mechanism according to morphology evaluation (Caki-1 cells [3]) | effect on the cell morphology (Caki-1 cells [3]) | cytotoxicity according to LDH assay (conclusion) (Caki-1 cells [1]) | reduction in cell viability (MTT) (Caki-1 cells [2]; Caki-1, 10 μM, second batch) | IC50 value after treatment for 1 day (Caki-1 cells [2]; Caki-1, doses 10 nM to 30 μM (FIG. 53)) | reduction in cell viability according to MTT assay (conclusion) (Caki-1 cells [2]) | cytotoxicity (LDH assay) (Caki-1 cells [1]; second batch) | cell death / toxicity (LDH) (Caki-1 cells [1]) | cytotoxicity (summary statement) (Caki-1 cells [1]) |
| --- | --- | --- | --- | --- | --- | --- | --- | --- | --- | --- | --- | --- | --- | --- | --- | --- | --- | --- | --- | --- |
| Cc1cnc(Nc2ccc(N3CCN(C)CC3)cc2)nc1Nc1cccc(S(=O)(=O)NC2CCC2)c1 [Compound M5, N-cyclobutyl-3-((5-methyl-2-((4-(4-methylpiperazin-1-yl)phenyl)amino)pyrimidin-4-yl)amino)benzenesulfonamide] | dose dependent toxicity | highest cytotoxicity | 2 | significantly lower the expression levels of BUB1B | reduction of the expression levels of BUB1B | largest decrease | the greatest | greatest reduction of cell viability | larger decrease in cell viability than TG-101209 | better IC50 values than TG-101209 | especially low cell viability; also recorded: particularly low cell viability | cell growth inhibition mechanism | distinct effect on the cell morphology |  |  |  |  |  |  |  |
| Cc1ccc(Nc2ncc(C)c(Nc3cccc(S(=O)(=O)NC(C)(C)C)c3)n2)cc1S(N)(=O)=O [Compound M66, N-(tert-butyl)-3-((5-methyl-2-((4-methyl-3-sulfamoylphenyl)amino)pyrimidin-4-yl)amino)benzenesulfonamide] |  | exhibited cytotoxicity | 4 | significantly lower the expression levels of BUB1B | reduction of the expression levels of BUB1B |  | the greatest | most profound effect |  |  | particularly low cell viability; also recorded: significantly reduced cell viability |  |  |  |  |  |  |  |  |  |
| COc1cc(Nc2ncc(C)c(Nc3cccc(S(=O)(=O)NC(C)(C)C)c3)n2)cc(OC)c1OC [Compound M76, N-(tert-butyl)-3-((5-methyl-2-((3,4,5-trimethoxyphenyl)amino)pyrimidin-4-yl)amino)benzenesulfonamide] | dose dependent toxicity |  |  | ability to lower the expression levels of BUB1B | reduction of the expression levels of BUB1B | largest decrease |  |  | larger decrease in cell viability than TG-101209 | better IC50 values than TG-101209 | especially low cell viability; also recorded: significantly reduced cell viability | cell growth inhibition mechanism | distinct effect on the cell morphology | greatest cytotoxicity | the greatest | lowest IC50 value | greatest reduction in cell viability |  |  |  |
| Cc1cnc(Nc2ccc(C(=O)Nc3ccc(N4CCN(C)CC4)cc3)cc2)nc1Nc1cccc(S(=O)(=O)NC(C)(C)C)c1 [Compound M101N, 4-((4-((3-(N-(tert-butyl)sulfamoyl)phenyl)amino)-5-methylpyrimidin-2-yl)amino)-N-(4-(4-methylpiperazin-1-yl)phenyl)benzamide] |  |  |  | did not affect the expression levels of BUB1B |  |  |  |  | larger decrease in cell viability than TG-101209 |  | particularly low cell viability; also recorded: significantly reduced cell viability | work as cytotoxic agents | distinct effect on the cell morphology | greatest cytotoxicity | the greatest |  | greatest reduction in cell viability | greatest cytotoxicity | strong toxicity | high cytotoxicity |
| Cc1cnc(Nc2ccc(C(=O)Nc3ccc(OCCN4CCCC4)cc3)cc2)nc1Nc1cccc(S(=O)(=O)NC(C)(C)C)c1 [Compound M101P, 4-((4-((3-(N-(tert-butyl)sulfamoyl)phenyl)amino)-5-methylpyrimidin-2-yl)amino)-N-(4-(2-(pyrrolidin-1-yl)ethoxy)phenyl)benzamide] |  |  |  | ability to lower the expression levels of BUB1B |  |  |  |  | larger decrease in cell viability than TG-101209 |  | particularly low cell viability; also recorded: significantly reduced cell viability | work as cytotoxic agents | distinct effect on the cell morphology | greatest cytotoxicity | the greatest |  | greatest reduction in cell viability | greatest cytotoxicity | strong toxicity | high cytotoxicity |
| COc1cc(Nc2ncc(C)c(Nc3cccc(S(=O)(=O)NC4CCC4)c3)n2)cc(OC)c1OC [Compound M120, N-cyclobutyl-3-((5-methyl-2-((3,4,5-trimethoxyphenyl)amino)pyrimidin-4-yl)amino)benzenesulfonamide] |  |  |  |  | reduction of the expression levels of BUB1B |  |  |  |  |  | especially low cell viability; also recorded: particularly low cell viability; also recorded: significantly reduced cell viability |  |  |  | the greatest |  |  |  |  |  |
| Cc1ccc(Nc2ncc(C)c(Nc3ccc(N4CCN(C)CC4)cc3)n2)cc1S(N)(=O)=O [Compound M123, 2-methyl-5-((5-methyl-4-((4-(4-methylpiperazin-1-yl)phenyl)amino)pyrimidin-2-yl)amino)benzenesulfonamide] |  |  |  |  | reduction of the expression levels of BUB1B |  |  |  |  |  | particularly low cell viability; also recorded: significantly reduced cell viability |  |  |  |  |  |  |  |  |  |
